In patent US9029359B2, “Heteroaryl Btk inhibitors” (Biogen Idec MA, Inc., priority 2009, dated 2015):

molecular target: T1, BTK (Homo sapiens, UniProt Q06187); test: In vitro BTK kinase assay: BTK-POLYGAT-LS ASSAY; assay type: biochemical; settings: ATP 10 uM
T1 construct: purchased Upstate 14-552
Procedure, shortened: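 BTK phosphorylation of polyGAT (100 nM final) with ATP at 10 μM final, 10 mM Tris-HCl pH 7.5 kinase buffer, quenched by EDTA after 30 min. Potency given as IC50.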

T1 sequence (Q06187 whole entry): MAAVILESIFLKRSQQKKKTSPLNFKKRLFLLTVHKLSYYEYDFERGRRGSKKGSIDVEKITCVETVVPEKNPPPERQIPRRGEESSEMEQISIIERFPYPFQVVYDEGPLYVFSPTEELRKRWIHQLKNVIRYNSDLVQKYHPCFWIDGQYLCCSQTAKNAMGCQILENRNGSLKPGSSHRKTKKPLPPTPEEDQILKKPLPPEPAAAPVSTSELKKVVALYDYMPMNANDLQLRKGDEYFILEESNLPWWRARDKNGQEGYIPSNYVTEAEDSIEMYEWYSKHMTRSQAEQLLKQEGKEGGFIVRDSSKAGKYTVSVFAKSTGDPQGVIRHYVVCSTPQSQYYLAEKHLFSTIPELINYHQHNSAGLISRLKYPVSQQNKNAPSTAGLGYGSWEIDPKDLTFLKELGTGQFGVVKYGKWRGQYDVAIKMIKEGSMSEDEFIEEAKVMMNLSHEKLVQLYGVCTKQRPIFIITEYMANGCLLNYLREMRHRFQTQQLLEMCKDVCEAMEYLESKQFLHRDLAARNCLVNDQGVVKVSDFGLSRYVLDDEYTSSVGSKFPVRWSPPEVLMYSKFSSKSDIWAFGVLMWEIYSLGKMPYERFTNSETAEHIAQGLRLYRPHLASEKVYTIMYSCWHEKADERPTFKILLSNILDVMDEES

Structure (SMILES) | IC50
Cc1cc(NCC(=O)N[C@@H]2CCCN(c3ncnc4[nH]ccc34)C2)ccc1Cl [Example 415] | 1000 to 10000 nM
CC(C)(C)c1ccccc1NCC(=O)N[C@@H]1CCCN(c2ncnc3[nH]ccc23)C1 [Example 416] | 1000 to 10000 nM
O=C(CNc1ccc(Cl)cc1F)N[C@@H]1CCCN(c2ncnc3[nH]ccc23)C1 [Example 418] | 1000 to 10000 nM
Cc1ccc(NCC(=O)N[C@@H]2CCCN(c3ncnc4[nH]ccc34)C2)c(F)c1 [Example 420] | 1000 to 10000 nM
Cc1cccc(C)c1NCC(=O)N[C@@H]1CCCN(c2ncnc3[nH]ccc23)C1 [Example 421] | 1000 to 10000 nM
O=C(CNc1cc(C(F)(F)F)ccc1N1CCCCC1)N[C@@H]1CCCN(c2ncnc3[nH]ccc23)C1 [Example 423] | 1000 to 10000 nM
O=C(N[C@@H]1CCCN(c2ncnc3[nH]ccc23)C1)[C@@H](CO)Nc1cc(F)cc(Cl)c1 [Example 424] | 1000 to 10000 nM
O=C(O)CC[C@@H](Nc1ccccc1)C(=O)N[C@@H]1CCCN(c2ncnc3[nH]ccc23)C1 [Example 425] | 1000 to 10000 nM
Cc1ccc(C)c(NCC(=O)N[C@@H]2CCCN(c3ncnc4[nH]ccc34)C2)c1 [Example 427] | 1000 to 10000 nM
Cc1cc(C)c(NCC(=O)N[C@@H]2CCCN(c3ncnc4[nH]ccc34)C2)c(C)c1 [Example 428] | 1000 to 10000 nM
O=C(CNc1cccc(N2CCCCC2)c1)N[C@@H]1CCCN(c2ncnc3[nH]ccc23)C1 [Example 429] | 1000 to 10000 nM
Cc1ccc(NCC(=O)N[C@@H]2CCCN(c3ncnc4[nH]ccc34)C2)c(Cl)c1 [Example 430] | 1000 to 10000 nM
O=C(CNC(Cc1ccccc1)c1ccccc1)N[C@@H]1CCCN(c2ncnc3[nH]ccc23)C1 (stereo partly drawn) [Example 431] | 1000 to 10000 nM
O=C(CNc1cccc([N+](=O)[O-])c1)N[C@@H]1CCCN(c2ncnc3[nH]ccc23)C1 [Example 432] | 1000 to 10000 nM
N#Cc1ccccc1NCC(=O)N[C@@H]1CCCN(c2ncnc3[nH]ccc23)C1 [Example 433] | 1000 to 10000 nM
NC(=O)c1cccc(NCC(=O)N[C@@H]2CCCN(c3ncnc4[nH]ccc34)C2)c1 [Example 434] | 1000 to 10000 nM
O=C(CNc1cccc(-c2cnco2)c1)N[C@@H]1CCCN(c2ncnc3[nH]ccc23)C1 [Example 435] | 1000 to 10000 nM
Cc1nccc(-c2cccc(NCC(=O)N[C@@H]3CCCN(c4ncnc5[nH]ccc45)C3)c2)n1 [Example 436] | 1000 to 10000 nM

Structure (SMILES) | IC50
O=C(CNc1cc(C(F)(F)F)ccc1F)N[C@@H]1CCCN(c2ncnc3[nH]ccc23)C1 [Example 437] | 1000 to 10000 nM
O=C(CNc1c(F)cc(F)cc1F)N[C@@H]1CCCN(c2ncnc3[nH]ccc23)C1 [Example 438] | 1000 to 10000 nM
COc1ccc(C(C)(C)C)cc1NCC(=O)N[C@@H]1CCCN(c2ncnc3[nH]ccc23)C1 [Example 442] | 1000 to 10000 nM
CC(C)c1ccc(NCC(=O)N[C@@H]2CCCN(c3ncnc4[nH]ccc34)C2)cc1 [Example 443] | 1000 to 10000 nM
O=C(CNc1ccccc1N1CCOCC1)N[C@@H]1CCCN(c2ncnc3[nH]ccc23)C1 [Example 444] | 1000 to 10000 nM
O=C(NC1CCCN(c2ncnc3[nH]ccc23)C1)[C@@H](CCCO)Nc1ccccc1 (stereo partly drawn) [Example 447] | 1000 to 10000 nM
O=C(N[C@@H]1CCCN(c2ncnc3[nH]ccc23)C1)C(Nc1ccccc1)C(F)(F)F (stereo partly drawn) [Example 449] | 1000 to 10000 nM
CS(=O)(=O)c1ccccc1NCC(=O)N[C@@H]1CCCN(c2ncnc3[nH]ccc23)C1 [Example 450] | 1000 to 10000 nM
COc1ccc(C)c(NCC(=O)N[C@@H]2CCCN(c3ncnc4[nH]ccc34)C2)c1 [Example 451] | 1000 to 10000 nM
COc1cccc(C)c1NCC(=O)N[C@@H]1CCCN(c2ncnc3[nH]ccc23)C1 [Example 452] | 1000 to 10000 nM
O=C(CNc1ccc(F)cc1F)N[C@@H]1CCCN(c2ncnc3[nH]ccc23)C1 [Example 454] | 1000 to 10000 nM
CNS(=O)(=O)c1ccccc1NCC(=O)N[C@@H]1CCCN(c2ncnc3[nH]ccc23)C1 [Example 457] | 1000 to 10000 nM
O=C(CNC1c2ccccc2-c2ccccc21)N[C@@H]1CCCN(c2ncnc3[nH]ccc23)C1 [Example 459] | 1000 to 10000 nM
O=C(CNC(c1ccccc1)c1ccccc1)N[C@@H]1CCCN(c2ncnc3[nH]ccc23)C1 [Example 460] | 1000 to 10000 nM
Cc1cccc(NC(C(=O)NC2CCCN(c3ncnc4[nH]ccc34)C2)C2CCCC2)c1 (stereo not drawn) [Example 461] | 1000 to 10000 nM
O=C(CNc1ccccc1)NC1CCCN(c2ncnc3[nH]cc(Cl)c23)C1 (stereo not drawn) [Example 462] | > 10000 nM
N#Cc1c(N)ncnc1N1CCCC(NC(=O)CNc2ccccc2)C1 (stereo not drawn) [Example 463] | > 10000 nM
O=C(CNc1ccccc1)NC1CCCN(c2ncnc3[nH]cnc23)C1 (stereo not drawn) [Example 464] | > 10000 nM

Other lines, results leading:

IC50 | Structure (SMILES)
1000 to 10000 nM | O=C(CNc1cccc(CO)c1)N[C@@H]1CCCN(c2ncnc3[nH]ccc23)C1 [Example 394]
1000 to 10000 nM | O=C(CNc1cccc(-n2cncn2)c1)N[C@@H]1CCCN(c2ncnc3[nH]ccc23)C1 [Example 395]
1000 to 10000 nM | O=C(CNc1cccc(-c2cc[nH]n2)c1)N[C@@H]1CCCN(c2ncnc3[nH]ccc23)C1 [Example 396]
1000 to 10000 nM | CC(O)c1cccc(NCC(=O)N[C@@H]2CCCN(c3ncnc4[nH]ccc34)C2)c1 (stereo partly drawn) [Example 397]
1000 to 10000 nM | Cc1c(O)cccc1NCC(=O)N[C@@H]1CCCN(c2ncnc3[nH]ccc23)C1 [Example 398]
1000 to 10000 nM | O=C(CNc1cccc(-c2nnn[nH]2)c1)N[C@@H]1CCCN(c2ncnc3[nH]ccc23)C1 [Example 400]
1000 to 10000 nM | O=C(CNc1cccc(O)c1)N[C@@H]1CCCN(c2ncnc3[nH]ccc23)C1 [Example 401]
1000 to 10000 nM | CCc1cccc(C)c1NCC(=O)N[C@@H]1CCCN(c2ncnc3[nH]ccc23)C1 [Example 403]
1000 to 10000 nM | O=C(CNc1cccc2ncccc12)N[C@@H]1CCCN(c2ncnc3[nH]ccc23)C1 [Example 405]
1000 to 10000 nM | O=C(CNc1ccc2[nH]ncc2c1)N[C@@H]1CCCN(c2ncnc3[nH]ccc23)C1 [Example 406]
1000 to 10000 nM | Cc1cccc(Cl)c1NCC(=O)N[C@@H]1CCCN(c2ncnc3[nH]ccc23)C1 [Example 407]
1000 to 10000 nM | C[C@@H](O)[C@@H](Nc1cc(F)cc(Cl)c1)C(=O)N[C@@H]1CCCN(c2ncnc3[nH]ccc23)C1 [Example 408]
1000 to 10000 nM | N#Cc1c(F)cccc1NCC(=O)N[C@@H]1CCCN(c2ncnc3[nH]ccc23)C1 [Example 409]
100 to 999 nM | O=C(CNc1c(F)ccc(F)c1F)N[C@@H]1CCCN(c2ncnc3[nH]ccc23)C1 [Example 411]
1000 to 10000 nM | N#Cc1ccc(NCC(=O)N[C@@H]2CCCN(c3ncnc4[nH]ccc34)C2)cc1 [Example 412]
100 to 999 nM | O=C(CNc1ccc(F)cc1)N[C@@H]1CCCN(c2ncnc3[nH]ccc23)C1 [Example 413]
1000 to 10000 nM | CCOc1ccc(OCC)c(NCC(=O)N[C@@H]2CCCN(c3ncnc4[nH]ccc34)C2)c1 [Example 414]
100 to 999 nM | O=C(CNc1ccc(F)cc1Cl)N[C@@H]1CCCN(c2ncnc3[nH]ccc23)C1 [Example 417]
100 to 999 nM | Cc1cc(Cl)ccc1NCC(=O)N[C@@H]1CCCN(c2ncnc3[nH]ccc23)C1 [Example 419]
100 to 999 nM | O=C(CNc1cccc(F)c1F)N[C@@H]1CCCN(c2ncnc3[nH]ccc23)C1 [Example 422]
100 to 999 nM | Cc1ccc(NCC(=O)N[C@@H]2CCCN(c3ncnc4[nH]ccc34)C2)cc1 [Example 426]
100 to 999 nM | CC(C)(C)c1cccc(NCC(=O)N[C@@H]2CCCN(c3ncnc4[nH]ccc34)C2)c1 [Example 440]
100 to 999 nM | O=C(CNc1cccc(OC(F)(F)C(F)F)c1)N[C@@H]1CCCN(c2ncnc3[nH]ccc23)C1 [Example 441]
100 to 999 nM | O=C(CNc1ccc(F)c(F)c1F)N[C@@H]1CCCN(c2ncnc3[nH]ccc23)C1 [Example 445]
100 to 999 nM | O=C(CNc1cc(F)ccc1F)N[C@@H]1CCCN(c2ncnc3[nH]ccc23)C1 [Example 446]
100 to 999 nM | O=C(CNc1cc(F)c(F)cc1F)N[C@@H]1CCCN(c2ncnc3[nH]ccc23)C1 [Example 453]
100 to 999 nM | COCCOc1ccc(C(F)(F)F)cc1NCC(=O)N[C@@H]1CCCN(c2ncnc3[nH]ccc23)C1 [Example 455]
